Measurements published in ChEMBL document CHEMBL1152560, “Substituted 2-arylbenzothiazoles as kinase inhibitors: hit-to-lead optimization” (Bioorg Med Chem, 2009).

Key:
[1] = molecular target: G protein-coupled receptor kinase 5 (Homo sapiens) (UniProt P34947); test: Residual activity of GRK5 at 1 uM by microplate scintillation counting
[2] = molecular target: Mitogen-activated protein kinase 14 (Homo sapiens) (UniProt Q16539); test: Residual activity of p38alpha at 1 uM by microplate scintillation counting
Sequence of Mitogen-activated protein kinase 14 (Homo sapiens) (Q16539 whole entry): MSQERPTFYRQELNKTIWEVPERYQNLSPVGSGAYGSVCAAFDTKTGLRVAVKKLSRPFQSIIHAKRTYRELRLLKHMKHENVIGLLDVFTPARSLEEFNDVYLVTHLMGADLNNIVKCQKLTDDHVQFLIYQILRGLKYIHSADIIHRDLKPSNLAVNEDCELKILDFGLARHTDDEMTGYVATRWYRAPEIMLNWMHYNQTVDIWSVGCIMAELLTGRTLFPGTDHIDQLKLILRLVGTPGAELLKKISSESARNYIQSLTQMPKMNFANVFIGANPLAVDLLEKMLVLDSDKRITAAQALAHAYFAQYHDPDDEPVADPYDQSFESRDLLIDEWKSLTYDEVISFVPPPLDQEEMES

[3] = molecular target: Mitogen-activated protein kinase kinase kinase 8 (Homo sapiens) (UniProt P41279); test: Residual activity of COT at 0.1 uM by microplate scintillation counting
[4] = molecular target: Calcium/calmodulin-dependent protein kinase type II subunit beta (Homo sapiens) (UniProt Q13554); test: Residual activity of CAMK2B at 1 uM by microplate scintillation counting
[5] = molecular target: Casein kinase I isoform gamma-1 (Homo sapiens) (UniProt Q9HCP0); test: Residual activity of CK1gamma1 at 1 uM by microplate scintillation counting
Sequence of Casein kinase I isoform gamma-1 (Homo sapiens) (Q9HCP0 whole entry, looked up, canonical isoform): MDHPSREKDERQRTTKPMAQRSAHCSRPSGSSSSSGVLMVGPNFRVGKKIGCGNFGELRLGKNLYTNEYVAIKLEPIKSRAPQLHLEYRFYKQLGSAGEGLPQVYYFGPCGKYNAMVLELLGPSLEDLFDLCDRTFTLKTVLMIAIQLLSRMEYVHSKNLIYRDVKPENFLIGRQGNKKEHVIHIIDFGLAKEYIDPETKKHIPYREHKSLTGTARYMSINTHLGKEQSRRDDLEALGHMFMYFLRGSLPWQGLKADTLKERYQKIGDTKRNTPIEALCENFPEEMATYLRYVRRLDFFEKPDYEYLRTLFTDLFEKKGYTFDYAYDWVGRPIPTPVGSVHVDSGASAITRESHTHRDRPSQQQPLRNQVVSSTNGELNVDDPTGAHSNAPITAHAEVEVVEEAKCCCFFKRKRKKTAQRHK

[6] = molecular target: T1, Muscle, skeletal receptor tyrosine-protein kinase (Homo sapiens) (UniProt O15146); test: Residual activity of MUSK at 10 uM by microplate scintillation counting
T1 sequence (whole entry): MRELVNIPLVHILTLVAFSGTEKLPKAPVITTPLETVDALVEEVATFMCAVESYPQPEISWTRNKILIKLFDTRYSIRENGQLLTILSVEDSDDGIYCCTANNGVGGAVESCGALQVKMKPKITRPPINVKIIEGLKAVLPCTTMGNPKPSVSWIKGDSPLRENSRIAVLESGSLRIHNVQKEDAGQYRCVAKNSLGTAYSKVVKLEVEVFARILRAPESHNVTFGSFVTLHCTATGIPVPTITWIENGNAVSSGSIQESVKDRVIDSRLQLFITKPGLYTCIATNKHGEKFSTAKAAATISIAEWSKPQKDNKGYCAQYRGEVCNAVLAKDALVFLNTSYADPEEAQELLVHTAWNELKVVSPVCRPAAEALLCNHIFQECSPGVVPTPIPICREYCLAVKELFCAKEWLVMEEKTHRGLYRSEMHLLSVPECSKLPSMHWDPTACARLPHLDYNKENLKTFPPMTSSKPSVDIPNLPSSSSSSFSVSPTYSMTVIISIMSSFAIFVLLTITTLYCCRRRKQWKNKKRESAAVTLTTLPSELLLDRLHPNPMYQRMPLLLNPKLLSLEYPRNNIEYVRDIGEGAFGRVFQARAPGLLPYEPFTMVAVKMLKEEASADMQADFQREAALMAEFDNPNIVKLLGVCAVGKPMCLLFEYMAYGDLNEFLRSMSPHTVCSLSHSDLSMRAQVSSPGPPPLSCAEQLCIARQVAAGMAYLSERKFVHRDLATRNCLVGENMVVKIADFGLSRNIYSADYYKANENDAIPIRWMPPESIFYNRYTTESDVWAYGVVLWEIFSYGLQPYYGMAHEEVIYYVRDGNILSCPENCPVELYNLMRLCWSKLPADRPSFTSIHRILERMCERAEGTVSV

[7] = molecular target: Serine/threonine-protein kinase MARK2 (Homo sapiens) (UniProt Q7KZI7); test: Residual activity of MARK2 at 1 uM by microplate scintillation counting
Sequence of Serine/threonine-protein kinase MARK2 (Homo sapiens) (Q7KZI7 whole entry): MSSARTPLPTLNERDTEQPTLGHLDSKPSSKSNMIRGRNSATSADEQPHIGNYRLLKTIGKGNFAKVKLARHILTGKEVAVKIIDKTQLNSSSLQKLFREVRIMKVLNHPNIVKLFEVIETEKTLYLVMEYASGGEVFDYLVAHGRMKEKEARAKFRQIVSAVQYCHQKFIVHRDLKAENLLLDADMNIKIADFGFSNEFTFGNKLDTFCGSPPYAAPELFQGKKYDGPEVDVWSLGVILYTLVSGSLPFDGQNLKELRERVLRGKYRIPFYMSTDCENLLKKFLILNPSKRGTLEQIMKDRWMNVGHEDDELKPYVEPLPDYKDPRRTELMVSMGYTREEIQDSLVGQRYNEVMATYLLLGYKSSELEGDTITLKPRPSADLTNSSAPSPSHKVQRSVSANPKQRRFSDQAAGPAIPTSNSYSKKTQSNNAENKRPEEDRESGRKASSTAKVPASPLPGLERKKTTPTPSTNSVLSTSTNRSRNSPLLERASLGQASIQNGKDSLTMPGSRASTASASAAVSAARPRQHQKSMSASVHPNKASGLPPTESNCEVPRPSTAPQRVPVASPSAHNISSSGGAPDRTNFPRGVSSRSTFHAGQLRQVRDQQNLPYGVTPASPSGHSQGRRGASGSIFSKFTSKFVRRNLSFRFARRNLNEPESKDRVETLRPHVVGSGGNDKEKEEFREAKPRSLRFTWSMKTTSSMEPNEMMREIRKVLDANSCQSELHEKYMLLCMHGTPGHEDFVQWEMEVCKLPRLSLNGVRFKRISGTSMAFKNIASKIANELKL

[8] = molecular target: Interferon-induced, double-stranded RNA-activated protein kinase (Homo sapiens) (UniProt P19525); test: Residual activity of EIF2AK2 at 1 uM by microplate scintillation counting
[9] = molecular target: Calcium/calmodulin-dependent protein kinase type II subunit alpha (Homo sapiens) (UniProt Q9UQM7); test: Residual activity of CAMK2A at 10 uM by microplate scintillation counting
[10] = molecular target: T2, Cytoplasmic tyrosine-protein kinase BMX (Homo sapiens) (UniProt P51813); test: Residual activity of BMX at 10 uM by microplate scintillation counting
T2 sequence (whole entry): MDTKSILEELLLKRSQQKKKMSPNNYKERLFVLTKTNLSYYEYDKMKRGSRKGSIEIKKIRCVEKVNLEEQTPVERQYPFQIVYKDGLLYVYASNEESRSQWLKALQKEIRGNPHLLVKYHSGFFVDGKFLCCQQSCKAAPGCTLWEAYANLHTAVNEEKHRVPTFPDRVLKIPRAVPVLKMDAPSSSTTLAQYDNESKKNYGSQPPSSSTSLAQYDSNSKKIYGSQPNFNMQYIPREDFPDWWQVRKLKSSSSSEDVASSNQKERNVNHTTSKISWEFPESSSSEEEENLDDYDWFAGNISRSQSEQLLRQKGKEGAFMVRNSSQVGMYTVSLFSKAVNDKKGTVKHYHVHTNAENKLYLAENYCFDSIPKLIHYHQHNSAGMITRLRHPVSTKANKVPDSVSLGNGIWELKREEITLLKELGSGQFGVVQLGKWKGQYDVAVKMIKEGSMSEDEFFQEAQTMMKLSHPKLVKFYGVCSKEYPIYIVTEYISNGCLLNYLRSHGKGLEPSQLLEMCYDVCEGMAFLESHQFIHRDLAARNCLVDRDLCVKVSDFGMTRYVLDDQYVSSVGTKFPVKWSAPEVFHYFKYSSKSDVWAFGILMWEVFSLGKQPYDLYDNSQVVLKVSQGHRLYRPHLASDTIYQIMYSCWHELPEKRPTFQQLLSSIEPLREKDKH

[11] = molecular target: Protein kinase C alpha type (Homo sapiens) (UniProt P17252); test: Residual activity of PKCalpha at 0.1 uM by microplate scintillation counting
[12] = molecular target: Serine/threonine-protein kinase PAK 1 (Homo sapiens) (UniProt Q13153); test: Residual activity of PAK1 at 1 uM by microplate scintillation counting
Sequence of Serine/threonine-protein kinase PAK 1 (Homo sapiens) (Q13153 whole entry): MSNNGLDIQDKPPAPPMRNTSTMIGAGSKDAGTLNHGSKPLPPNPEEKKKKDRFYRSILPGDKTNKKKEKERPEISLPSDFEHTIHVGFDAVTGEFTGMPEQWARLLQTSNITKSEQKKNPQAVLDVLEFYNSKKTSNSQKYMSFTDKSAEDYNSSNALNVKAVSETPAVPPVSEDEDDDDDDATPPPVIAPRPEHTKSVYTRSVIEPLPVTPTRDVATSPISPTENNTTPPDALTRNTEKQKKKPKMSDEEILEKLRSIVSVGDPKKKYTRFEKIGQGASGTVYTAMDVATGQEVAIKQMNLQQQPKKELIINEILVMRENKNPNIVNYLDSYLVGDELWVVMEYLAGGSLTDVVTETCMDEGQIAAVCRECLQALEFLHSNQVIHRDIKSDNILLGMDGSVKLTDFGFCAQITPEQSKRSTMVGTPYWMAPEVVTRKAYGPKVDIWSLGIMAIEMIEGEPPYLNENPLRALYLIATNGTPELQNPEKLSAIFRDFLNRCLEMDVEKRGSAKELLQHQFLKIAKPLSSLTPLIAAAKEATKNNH

[13] = molecular target: Aurora kinase B (Homo sapiens, UniProt Q96GD4); test: Residual activity of Aurora-B at 10 uM by microplate scintillation counting
[14] = molecular target: Proto-oncogene tyrosine-protein kinase receptor Ret (Homo sapiens) (UniProt P07949); test: Residual activity of RET at 0.1 uM by microplate scintillation counting
[15] = molecular target: Casein kinase II subunit alpha' (Homo sapiens) (UniProt P19784); test: Residual activity of CK2alpha2 at 10 uM by microplate scintillation counting
[16] = molecular target: Mast/stem cell growth factor receptor Kit (Homo sapiens) (UniProt P10721); test: Residual activity of wild type KIT at 1 uM by microplate scintillation counting
Sequence of Mast/stem cell growth factor receptor Kit (Homo sapiens) (P10721 whole entry): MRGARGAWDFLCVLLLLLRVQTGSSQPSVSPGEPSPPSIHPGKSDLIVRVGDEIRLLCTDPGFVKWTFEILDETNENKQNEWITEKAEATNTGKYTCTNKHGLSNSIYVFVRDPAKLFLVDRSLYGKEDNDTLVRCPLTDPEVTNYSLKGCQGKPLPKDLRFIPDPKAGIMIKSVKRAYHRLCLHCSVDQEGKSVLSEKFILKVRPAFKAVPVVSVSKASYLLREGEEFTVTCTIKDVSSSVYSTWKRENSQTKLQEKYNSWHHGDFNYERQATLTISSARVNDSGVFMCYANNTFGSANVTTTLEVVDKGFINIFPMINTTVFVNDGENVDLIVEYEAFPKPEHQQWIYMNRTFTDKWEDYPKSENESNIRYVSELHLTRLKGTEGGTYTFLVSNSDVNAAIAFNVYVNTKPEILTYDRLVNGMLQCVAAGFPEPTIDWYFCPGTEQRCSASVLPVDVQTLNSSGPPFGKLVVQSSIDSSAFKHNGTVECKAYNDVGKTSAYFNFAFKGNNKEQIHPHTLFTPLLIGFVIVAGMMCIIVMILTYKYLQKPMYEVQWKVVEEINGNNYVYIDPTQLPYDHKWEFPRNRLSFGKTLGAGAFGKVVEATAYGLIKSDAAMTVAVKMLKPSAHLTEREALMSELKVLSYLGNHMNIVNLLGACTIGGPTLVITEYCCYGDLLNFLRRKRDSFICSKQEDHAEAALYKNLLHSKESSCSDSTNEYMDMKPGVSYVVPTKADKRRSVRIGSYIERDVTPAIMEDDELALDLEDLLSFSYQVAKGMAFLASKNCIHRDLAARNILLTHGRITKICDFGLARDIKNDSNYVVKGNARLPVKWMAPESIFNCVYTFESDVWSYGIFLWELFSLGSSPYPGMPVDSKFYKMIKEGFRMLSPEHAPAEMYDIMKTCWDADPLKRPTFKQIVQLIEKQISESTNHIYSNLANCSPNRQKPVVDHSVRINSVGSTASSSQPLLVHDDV

[17] = molecular target: Activated CDC42 kinase 1 (Homo sapiens) (UniProt Q07912); test: Residual activity of ACK1 at 0.1 uM by microplate scintillation counting
[18] = molecular target: Serine/threonine-protein kinase Nek6 (Homo sapiens) (UniProt Q9HC98); test: Residual activity of NEK6 at 1 uM by microplate scintillation counting
[19] = molecular target: Eukaryotic translation initiation factor 2-alpha kinase 1 (Homo sapiens) (UniProt Q9BQI3); test: Residual activity of HRI at 0.1 uM by microplate scintillation counting
[20] = molecular target: RAC-beta serine/threonine-protein kinase (Homo sapiens) (UniProt P31751); test: Residual activity of AKT2 at 10 uM by microplate scintillation counting
[21] = molecular target: Epidermal growth factor receptor (Homo sapiens, UniProt P00533); test: Residual activity of wild type EGF-R at 10 uM by microplate scintillation counting
Sequence of Epidermal growth factor receptor (P00533 whole entry): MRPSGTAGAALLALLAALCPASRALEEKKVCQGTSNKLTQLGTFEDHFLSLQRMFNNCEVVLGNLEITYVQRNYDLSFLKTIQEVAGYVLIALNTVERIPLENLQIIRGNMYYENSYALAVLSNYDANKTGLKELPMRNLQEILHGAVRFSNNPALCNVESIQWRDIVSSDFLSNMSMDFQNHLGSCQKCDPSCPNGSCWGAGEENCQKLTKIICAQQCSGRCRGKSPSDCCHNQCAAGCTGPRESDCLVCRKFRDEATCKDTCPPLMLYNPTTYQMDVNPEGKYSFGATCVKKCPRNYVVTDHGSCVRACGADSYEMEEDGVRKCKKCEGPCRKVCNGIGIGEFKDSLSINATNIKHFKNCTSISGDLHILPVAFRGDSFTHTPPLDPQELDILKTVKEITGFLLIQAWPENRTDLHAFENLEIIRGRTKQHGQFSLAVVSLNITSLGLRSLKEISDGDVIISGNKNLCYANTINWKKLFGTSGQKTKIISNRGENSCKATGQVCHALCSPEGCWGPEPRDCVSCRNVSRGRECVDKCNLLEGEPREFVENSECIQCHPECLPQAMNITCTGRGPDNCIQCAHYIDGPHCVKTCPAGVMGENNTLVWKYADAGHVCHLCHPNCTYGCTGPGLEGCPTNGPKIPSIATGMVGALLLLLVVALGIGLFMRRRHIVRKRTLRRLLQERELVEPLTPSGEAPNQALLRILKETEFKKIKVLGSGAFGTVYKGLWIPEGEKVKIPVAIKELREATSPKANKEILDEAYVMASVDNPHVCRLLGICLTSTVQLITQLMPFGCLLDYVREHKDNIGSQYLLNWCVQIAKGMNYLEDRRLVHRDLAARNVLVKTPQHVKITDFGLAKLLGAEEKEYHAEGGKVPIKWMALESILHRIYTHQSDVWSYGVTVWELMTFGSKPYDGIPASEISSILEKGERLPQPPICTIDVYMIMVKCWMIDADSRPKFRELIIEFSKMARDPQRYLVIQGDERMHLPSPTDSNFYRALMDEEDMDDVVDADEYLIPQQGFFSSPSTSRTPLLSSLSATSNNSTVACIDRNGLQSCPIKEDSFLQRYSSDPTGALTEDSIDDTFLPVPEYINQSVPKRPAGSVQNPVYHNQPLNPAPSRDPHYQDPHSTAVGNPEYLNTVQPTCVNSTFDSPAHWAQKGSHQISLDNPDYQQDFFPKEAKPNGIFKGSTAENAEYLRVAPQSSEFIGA

Sequence of G protein-coupled receptor kinase 5 (Homo sapiens) (P34947 whole entry, looked up): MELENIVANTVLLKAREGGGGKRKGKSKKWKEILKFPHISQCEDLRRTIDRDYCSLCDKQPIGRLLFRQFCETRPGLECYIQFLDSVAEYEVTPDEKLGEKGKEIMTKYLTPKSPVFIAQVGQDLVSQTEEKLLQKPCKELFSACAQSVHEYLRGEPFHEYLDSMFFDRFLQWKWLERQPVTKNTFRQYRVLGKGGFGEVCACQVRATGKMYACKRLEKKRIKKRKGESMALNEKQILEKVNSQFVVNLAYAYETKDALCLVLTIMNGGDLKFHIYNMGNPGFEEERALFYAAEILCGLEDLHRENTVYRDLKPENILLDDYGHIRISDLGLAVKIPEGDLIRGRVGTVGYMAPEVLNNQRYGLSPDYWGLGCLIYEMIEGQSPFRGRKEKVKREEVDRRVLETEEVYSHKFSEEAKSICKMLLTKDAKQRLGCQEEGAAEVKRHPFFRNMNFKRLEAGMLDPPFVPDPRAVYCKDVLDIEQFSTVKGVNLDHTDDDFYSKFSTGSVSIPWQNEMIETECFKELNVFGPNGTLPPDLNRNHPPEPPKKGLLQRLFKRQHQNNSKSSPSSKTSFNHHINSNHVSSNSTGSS

residual activity [1] [%] | residual activity [2] [%] | residual activity [3] [%] | residual activity [4] [%] | residual activity [5] [%] | residual activity [6] [%] | residual activity [7] [%] | residual activity [8] [%] | residual activity [9] [%] | residual activity [10] [%] | residual activity [11] [%] | residual activity [12] [%] | residual activity [13] [%] | residual activity [14] [%] | residual activity [15] [%] | residual activity [16] [%] | residual activity [17] [%] | residual activity [18] [%] | residual activity [19] [%] | residual activity [20] [%] | Compound | also measured
89 | 143 | 73 | 70 | 97 | 46 | 86 | 83 | 11 | 138 | 137 | 101 | 3 | 97 | 97 | 129 | 105 | 84 | 92 | 119 | COc1cc2c(Oc3ccc(-c4nc5ccccc5s4)cc3)ncnc2cc1OCCCN1CCCC1 | residual activity [21]: 67%
87 | 145 | 101 | 103 | 112 | 44 | 74 | 73 | 10 | 156 | 108 | 104 | 5 | 92 | 98 | 124 | 96 | 96 | 113 | 175 | COc1cc2c(Oc3ccc(-c4nc5ccccc5s4)cc3)ncnc2cc1OCCCN1CCN(C)CC1 | residual activity [21]: 52%
90 | 148 | 78 | 82 | 110 | 41 | 87 | 72 | 21 | 44 | 100 | 91 | 3 | 101 | 116 | 128 | 87 | 102 | 98 | 167 | COc1cc2c(Oc3ccc(-c4nc5ccccc5s4)cc3F)ncnc2cc1OCCCN1CCN(C)CC1 | residual activity [21]: 48%
